# Experimental data as given in US8039438B2, “Synthetic peptides that cause F-actin bundling and block actin depolymerization” (The Regents of the University of California, priority 2003, dated 2011).
# Experiments:
# [1] = test system: dextran-labeled electroporated cells; test: Change in number of dextran-labeled cells after electroporation with peptide; type: cell-based
# [2] = test system: actin comet tails in Xenopus egg extracts; test: Actin comet-tail formation in cytoplasmic extracts; type: biochemical, Xenopus laevis
# Procedure: In FIGS. 4A and 4B, in vitro polymerized actin forms comet tail from rhodamine-labeled actin added to Xenopus laevis egg cytoplasmic extract. This was set up according to the protocol in Taunton et al., J Cell Biol. 2000 Feb. 7; 148(3):519-30.
# Crude Xenopus egg extract was prepared as described except that cytochalasin D was omitted (Murray and Kirschner, Nature. 1989 May 25; 339(6222):275-80). Cytosol and a heavy membrane fraction were prepared by centrifugation of the crude extract (2 h, 300.000 g max; BECKMAN SW-50 rotor). The viscous glycogen pellet beneath the membrane layer was discarded. Cytosol was further clarified by spinning for 15 min at 541,000 g max (BECKMAN TLA 100.3 rotor). Crude membranes (diluted with one volume of 2 M sucrose) and cytosol were snap frozen in separate aliquots for storage at −80° C. unless otherwise indicated. Clarified cytosol contained a small population of vesicles, but motility assays were far more robust (more comet tails over a longer time period) when cytosol was supplemented with the heavy membrane fraction.
# For the standard assay, crude membranes in 1 M sucrose (20-μl aliquot, derived from ˜80 μl crude extract) were washed and resuspended in 14 μl buffer A (50 mM NaCl, 5 mM MgCl2, and 50 mM tris [pH 7.5]). To the membrane suspension were added 35 μl cytosol (derived from ˜80 μl crude extract), 0.3 μl rhodamine-labeled actin (prepared according to Kellogg et al., Development. 1988 August; 103(4):675-86), 3 μl PMA (20 μM stock in 10% DMSO), and 20 μl buffer A at 4° C. 20-μl samples were then warmed to room temperature. After 30-40 min, 2-μl aliquots were viewed with a Nikon E800 microscope to yield the photomicrographs of FIG. 4. Images were acquired with a Princeton Instruments cooled CCD camera (standard rhodamine filter set, Princeton Instruments, Trenton, N.J.) and analyzed with WINVIEW (Visitron System, Puchheim, Germany) or METAMORPH software (Princeton Instruments, Trenton, N.J.). Pixels having an intensity over a threshold value (set to a value greater than the background fluorescence in regions devoid of comet tails) were summed over 10 random fields to quantitate relative actin assembly.
# Cytosol was supplemented with a crude membrane fraction, rhodamine-actin, 1 μM PMA and peptide SS2 or SS12 (1 μM). After incubating at room temperature for 20 min, samples were viewed by fluorescence. Actin comet tails formed in Xenopus cytoplasmic extracts where no SS2 or SS12 peptides were added as shown by the photographs A, B and E of FIG. 4.
# actin/pyrene-actin = actin/pyrene-actin (Oryctolagus cuniculus, UniProt P68135); test: Actin/pyrene-actin polymerization fluorescence (nucleating or capping activity); type: biochemical; conditions: time-dependent fluorescence increase; data not shown
# Text: Upon binding to ActA, the Arp2/3 complex has enhanced nucleating activity for actin polymerization (Skoble J, Portnoy D A, Welch M D, Three regions within ActA promote Arp2/3 complex-mediated actin nucleation and Listeria monocytogenes motility; J Cell Biol. […] Aug. 7; 150(3):527-38). We tested a possible involvement of the homologous sequence on nucleating or capping activity by following the time-dependent fluorescence increase upon actin/pyrene-actin polymerization in the presence of the synthetic peptide SS12.
sequence,measurement,setting,value
GIVRKWISRFEVWPYL (SS12 active synthetic peptide),number of cells after 24 hours,[1]; compared to cells treated with the inactive peptide,decrease in the number of cells
same,time over which cell division was inhibited,"[1]; observation period 36 hours, cells with 24 hr cell cycle",36 h
same,effect on actin comet tails,"[2]; FIGS. 4C, 4D, 4F, concentration not given",complete disruption of the comet tails
same,actin comet tail formation,"[2]; peptide 1 μM, 1 μM PMA, 20 min at room temperature",little or no actin comet tail formation
same,nucleating or capping activity,actin/pyrene-actin,did not show any nucleating or capping activity
